{"source": "paper PMC13114161", "about": "(Antibiotics, 2026)", "experiment": "in vitro", "format": "cell-based", "conditions": "human", "experimental": "The cytotoxicity of TXA11114 was evaluated in HEK293T and A549 cell lines using the CellTiter-Glo™ assay (Promega, Madison, WI, USA). HEK293T cells (human embryonic kidney cells transformed with sheared adenovirus 5 DNA and expressing SV40 large T antigen) and A549 cells (human alveolar basal epithelial adenocarcinoma cell line; hypotriploid with a modal chromosome number of 66) were obtained from Sai Life Sciences Ltd. (Hyderabad, India). These cell lines are well-characterized and consistent with commonly used reference lines (e.g., A549, ATCC CCL-185).\nTXA11114 was tested in a dose–response format with a top concentration of 20 µM using 2-fold serial dilutions in triplicate. Doxorubicin and staurosporine were included as reference controls. Cells (1200 cells/well in 27 µL complete medium) were seeded into 384-well plates and incubated overnight at 37 °C with 5% CO2. The following day, cells were treated with 3 µL of 10× serially diluted compounds. After a 24 h incubation, CellTiter-Glo reagent was added, and plates were gently shaken for 15–20 min at room temperature. Luminescence was measured using an EnVision multimode plate reader (PerkinElmer, Thane, India).", "data": [{"compound": "NCC(F)C[C@@H](N)CNC(=O)c1cc2ccc(-c3ccc(F)cc3)cc2[nH]1", "note": "(stereo partly drawn) [TXA11114, N-((2R)-2,5-diamino-4-fluoropentyl)-6-(4-fluorophenyl)-1H-indole-2-carboxamide]", "values": [{"measurement": "IC50 at 24 h", "value": "> 20", "unit": "µM"}]}]}
